Experiments:
MATB.WT = test: Soft agar colony formation disk diffusion assay; type: cell-based, rat
Summary of the method: (§1)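 Read-out: zone of inhibition, disk edge to most proximal colony (>50 cells), measured by ocular micrometer at 40×. Two-layer agar, 10^4 to 2×10^5 cells per dish, drug on filter disk, 37° C., 5% CO2, 10-20 days.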

MATB/ADR = test: Soft agar colony formation disk diffusion assay; type: cell-based, rat
Summary of the method: as §1

B16 = test: Soft agar colony formation disk diffusion assay; type: cell-based, murine
Summary of the method: as §1

LL = test: Soft agar colony formation disk diffusion assay; type: cell-based, murine; settings: 100 μg/DISK
Summary of the method: as §1

M5076 = test: Soft agar colony formation disk diffusion assay; type: cell-based, murine
Summary of the method: as §1

P388/ADR = test: Soft agar colony formation disk diffusion assay; type: cell-based, murine
Summary of the method: as §1

P388 = test: Soft agar colony formation disk diffusion assay; type: cell-based, murine
Summary of the method: as §1

LOX = test: Microculture tetrazolium assay; type: cell-based; settings: read-out: IC50
NSC Lung = test: NCI assay, average per cancer type; settings: Homo sapiens
SC Lung = test: NCI assay, average per cancer type; settings: Homo sapiens
Colon = test: NCI assay, average per cancer type; settings: Homo sapiens
Renal = test: NCI assay, average per cancer type; settings: Homo sapiens
solid tumors = test: NCI assay, mean potency in solid tumors; settings: Homo sapiens
tumor cell lines = test: NCI sulforhodamine B assay, all cell lines
[1] = 48 h, read-out: Average LOG10 LC50

CCOC(=O)C1CC2=C(CO1)C(=O)c1c(cc3ccccc3c1O)C2=O (stereo not shown) [BCH-651, Ethyl(6 and 11 hydroxy-5,12-dioxo-3,4,5,12-tetrahydro-anthraceno[2,3-c]pyran-3-yl)]formate]
zone of inhibition (MATB.WT; 10 μg/DISK): 0 Zone Units | zone of inhibition (MATB.WT; 100 μg/DISK): 36.6 ± 8.6 Zone Units | zone of inhibition (MATB/ADR; 10 μg/DISK): 0 Zone Units | zone of inhibition (MATB/ADR; 100 μg/DISK): 100.0 Zone Units | zone of inhibition (B16; 10 μg/DISK): 0 Zone Units | zone of inhibition (B16; 100 μg/DISK): 27.5 ± 13.4 Zone Units | zone of inhibition (LL): 27.4 ± 4.3 Zone Units | zone of inhibition (M5076; 10 μg/DISK): 15.2 ± 4.3 Zone Units | zone of inhibition (M5076; 100 μg/DISK): 51.3 ± 43.3 Zone Units | zone of inhibition (P388/ADR; 10 μg/DISK): 10.0 ± 0.0 Zone Units | zone of inhibition (P388/ADR; 100 μg/DISK): 30.5 ± 8.6 Zone Units | zone of inhibition (P388; 10 μg/DISK): 45.7 ± 12.9 Zone Units | zone of inhibition (P388; 100 μg/DISK): 294.5 ± 101.1 Zone Units | IC50 (LOX): 22.1 µM | CC50 (NSC Lung; [1]): 50.1 µM | GI50 (NSC Lung; read-out: Average LOG10 GI50): 7.76 µM | CC50 (SC Lung; [1]): 61.7 µM | GI50 (SC Lung; read-out: Average LOG10 GI50): 2.75 µM | CC50 (Colon; [1]): 41.7 µM | GI50 (Colon; read-out: Average LOG10 GI50): 3.39 µM | CC50 (Renal; [1]): 55 µM | GI50 (Renal; read-out: Average LOG10 GI50): 10 µM | CC50 (solid tumors; 48 h, read-out: Average LOG10 LC50, Mean Potency in solid tumors): 50.1 µM | GI50 (solid tumors; read-out: Average LOG10 GI50, Mean Potency in solid tumors): 5.25 µM | antiproliferative and cytotoxic activity in words (tumor cell lines): strong antiproliferative (GI50) and potent cytotoxic (LC50) activities | CC50 (tumor cell lines; Homo sapiens, 48 h, read-out: Log10 LC50, Mean / MG-MID, all cell lines (converted)): 58.9 µM | IC100 (tumor cell lines; Homo sapiens, 48 h, read-out: Log10 TGI, Mean / MG-MID, all cell lines): 21.4 µM | GI50 (tumor cell lines; Homo sapiens, read-out: Log10 GI50, Mean / MG-MID, all cell lines (converted)): 5.5 µM
